Entries after “also recorded” stand apart in the source; their conditions may differ.
Key:
[1] = system: subjects with primary or secondary progressive multiple sclerosis; experiment: Optical coherence tomography (OCT) outcomes in the SPRINT-MS phase II randomized, double-blind, placebo-controlled trial; format: in vivo, human
Method: This was a multicenter, randomized, double-blind, placebo-controlled, parallel-group study designed to evaluate the safety, tolerability and activity of ibudilast administered twice daily over a 96 week period in subjects with primary or secondary progressive multiple sclerosis. The primary objectives of the study were: • to evaluate the activity of ibudilast (100 mg/d) versus placebo at 96 weeks as measured by quantitative magnetic resonance imaging (MRI) analysis for whole brain atrophy using brain parenchymal fraction (BPF); • to evaluate the safety and tolerability of ibudilast (100 mg/d) versus placebo administered orally in subjects with primary and secondary progressive multiple sclerosis; and • to study the effect of ibudilast on macular measures from the SPRINT-MS phase II trial of ibudilast in progressive MS. The major secondary objectives were to evaluate the activity of ibudilast at 96 weeks versus placebo as measured by: • Diffusion tensor imaging (DTI) in descending pyramidal white matter tracts; • Magnetization transfer ratio (MTR) imaging in normal-appearing brain tissue; • Retinal nerve fiber layer as measured by Optical coherence tomography (OCT); and • Cortical atrophy as measured by cortical longitudinal atrophy detection algorithm ([…] total of 255 male and female subjects from 21 to 65 years old, inclusive, were enrolled into one of two treatment arms (ibudilast 100 mg/d or matching-placebo). Study population for SPRINT-MS was a mix of primary (53%) and secondary progressive (47%) MS, average age 56 years and median expanded disability status scale (EDSS)=6.0 at baseline. Randomization of subjects was stratified by disease status ([…]), and by immunomodulating therapy status: “untreated”, glatiramer acetate (GA), or interferon-beta. Subjects were allowed to continue using of interferon-beta (IFN-β) or glatiramer acetate while participating in this study. During the study, subjects were allowed to change medications from one injectable to the other. Pegylated interferon beta-1 were also allowed (if approved by the FDA). Inhaled and topical steroids are allowed. If a relapse episode occurred, a single course of systemic corticosteroids was permitted, as prescribed by the treating neurologist. Subjects returned to the clinic for follow-up visits on a regular basis at Week 4, 8, 12, 24, 36, 48, 60, 72, 84 and 96. The double-blind Treatment Phase consisted of a Baseline visit followed by 10 scheduled clinic visits. The Baseline Visit had to have occurred within 45 days following the Screening Visit. At the Baseline Visit (Day 1), subjects who completed all of the screening assessments and continued to meet eligibility criteria were randomized to one of two treatment groups (ibudilast 100 mg/d or placebo) in a 1:1 ratio. […] Subjects took their first dose of study medication (30 mg ibudilast or placebo) on the evening of the Baseline Visit (Day 1). On the morning of Day 2, all subjects begun a 3 capsule BID dosing regimen through Day 14. Subjects randomized to ibudilast started at 60 mg/d (30 mg BID) on Day 2 and remained on 60 mg/d through Day 14. Beginning on Day 15, all subjects increased dosing to 5 capsules BID regimen; those randomized to the ibudilast treatment arm were taking 100 mg/d. After Day 15, subjects with intolerable side-effects (e.g., nausea, diarrhea, vertigo) were allowed to reduced their dose to either 4 capsules twice a day (80 mg/d for those taking ibudilast) or 3 capsules twice a day (60 mg/d for those taking ibudilast). Subjects with intolerable side-effects (e.g., nausea, diarrhea, vertigo) at the end of Day 14 were allowed to continue taking 3 capsules twice a day at the Investigator's discretion. At the Investigator's discretion, the daily dose of ibudilast were potentially adjusted between 3 capsules twice a day, 4 capsules twice a day, and 5 capsules twice a day over the first 8 weeks of treatment. […]

[2] = Sanftner et al., Xenobiotica 2009 39: 964-977; cited from earlier work

## CC(C)C(=O)c1c(C(C)C)nn2ccccc12 [ibudilast, 3-isobutyryl-2-isopropylpyrazolo[1,5-a]pyridine]
[1]; Cirrus OCT
  macular volume loss and GCIP layer thinning (in words): favorable changes towards reduced macular volume loss and GCIP layer thinning
[1]; Cirrus OCT, ibudilast vs placebo, 95% CI: −0.0090 to 0.0499
  rate of macular volume loss, between-group difference per year: 0.0204 mm^3
[1]; Cirrus OCT, ibudilast vs placebo, 95% CI: −0.1189 to 1.0578
  ganglion cell-inner plexiform layer thinning, between-group difference per year: 0.469 µm/year
[1]; Spectralis OCT over 96 weeks
  annual macular volume loss compared to placebo (in words): slower
[1]; Spectralis OCT, ibudilast vs placebo, 95% CI: 0.0008 to 0.0623
  rate of macular volume loss, between-group difference per year: 0.0316 mm^3
[1]; patients followed with Cirrus OCT, 95% CI: −0.02167 to 0.020866, placebo −0.02083, p=0.1734
  estimated rate of macular volume change per year: −0.0004 mm^3
[1]; patients followed with Spectralis OCT, 95% CI: −0.02693 to 0.01688, placebo −0.03659, p=0.044
  estimated rate of macular volume change per year: −0.00503 mm^3
[2]
  CNS distribution / penetration (in words): distributes well to the CNS; also recorded: good CNS penetration

Reference: patent publication US11154540B2, “Methods of treating ophthalmic disease/disorder or injury with ibudilast” (MediciNova, Inc., priority 2018, dated 2021)
